Experimental data taken from paper PMC9161374 (Science Translational Medicine, 2022).
Values joined by “and” are separate entries in the source; they are usually repeats but may differ in a detail not shown here. Identical values can stand only once. Like-named read-outs stand apart in the source and are kept apart here.

Experiments:
[1] = system: SARS-CoV-2 (Delta, B.1.617.2); test: microbe, parasite or virus in culture; format: cell-based; settings: for % Inhibition: delta, listed as Remdsivir
[2] = system: SARS-CoV-2 (Omicron, B.1.1.529); settings: Omicon, Vero E6, replicates, listed as Remdsivir
[3] = CCK-8 cell viability assay; format: cell-based, African green monkey; settings: African green monkey; Vero E6 cells, 48 h, CCK8
Protocol: To investigate the effect of drugs on cell viability, Vero E6 cells were seeded in 96-well plates at a density of 20,000 cells per well and were treated with drugs at indicated concentrations (0, 0.01, 0.1, 1, 5, 10, 50, 75, 100, 200 μM) for 48 hours. Cell viability was tested by using Cell Counting Kit-8 (CCK-8, Bimake, B34302). The figures were plotted from cell viability percentage versus the drug concentrations using GraphPad Prism 6 software.
Fig. S4. Cytotoxicity assay of compounds in Vero E6 cells.
Vero E6 cells were plated in 96-well plates and treated with increasing concentrations
of each indicated compound, ranging from 0 to 200 μM, for 48 hours. Cell viability was
tested using Cell Counting Kit-8 (CCK-8). Data are presented as mean ± SD.

COVID-19 = system: COVID-19; parameters: method as in PMID 34937145; settings: administered early to non-hospitalized, high-risk patients ref 27; cited from earlier work
[4] = system: SARS-CoV-2 (Beta, B.1.351); test: microbe, parasite or virus in culture; format: cell-based; settings: for % Inhibition: beta, listed as Remdsivir
SARS-CoV-2 (B.1) = test: Anti-SARS-CoV-2 activity in Vero E6 cells (viral yield by qRT-PCR); format: cell-based; settings: for % Inhibition: listed as Remdsivir
[5] = system: SARS-CoV-2 (Omicron, B.1.1.529); test: microbe, parasite or virus in culture
[6] = Severe acute respiratory syndrome coronavirus 2, Vero C1008, read-out: EC90 (Confidence 95%)

CCC(CC)COC(=O)[C@H](C)N[P@](=O)(OC[C@H]1O[C@@](C#N)(c2ccc3c(N)ncnn23)[C@H](O)[C@@H]1O)Oc1ccccc1 [Remdesivir, remdesivir, reference compound]
EC50 ([1]; Severe acute respiratory syndrome coronavirus 2, Vero C1008, 48 h, read-out: EC50 in Vero E6 cells, SARS-CoV-2 (Delta, B.1.617.2)): 1.65 µM
inhibition at 0.01 µM ([1]; Severe acute respiratory syndrome coronavirus 2, Vero C1008, delta, 0.01 uM, Vero E6, replicates): 0%
inhibition at 0.1 µM ([1]; Severe acute respiratory syndrome coronavirus 2, Vero C1008, delta, 0.1 uM, Vero E6, replicates): 0%
inhibition at 0.25 µM ([1]; Severe acute respiratory syndrome coronavirus 2, Vero C1008, delta, 0.25 uM, Vero E6, replicates): 0%
inhibition at 0.5 µM ([1]; Severe acute respiratory syndrome coronavirus 2, Vero C1008, delta, 0.5 uM, Vero E6, replicates): 0%
inhibition at 1 µM ([1]; Severe acute respiratory syndrome coronavirus 2, Vero C1008, delta, 1 uM, Vero E6, replicates): 55.7%
inhibition at 2 µM ([1]; Severe acute respiratory syndrome coronavirus 2, Vero C1008, delta, 2 uM, Vero E6, replicates): 58%
inhibition at 5 µM ([1]; Severe acute respiratory syndrome coronavirus 2, Vero C1008, delta, 5 uM, Vero E6, replicates): 77.1%
inhibition at 10 µM ([1]; Severe acute respiratory syndrome coronavirus 2, Vero C1008, delta, 10 uM, Vero E6, replicates): 99.2%
inhibition at 50 µM ([1]; Severe acute respiratory syndrome coronavirus 2, Vero C1008, delta, 50 uM, Vero E6, replicates): 99.9%
EC90 ([1]; Severe acute respiratory syndrome coronavirus 2, Vero C1008, read-out: EC90 (Confidence 95%), Vero-E6, Delta B.1.617.2): 7.34 µM
% Inhibition ([1]; 1 uM, Vero E6, replicates): 43.4129%
% Inhibition ([1]; 2 uM, Vero E6, replicates): 46.5254%
% Inhibition ([1]; 5 uM, Vero E6, replicates): 77.4749%
% Inhibition ([1]; 10 uM, Vero E6, replicates): 96.2382%
% Inhibition ([1]; 50 uM, Vero E6, replicates): 99.3849%
% Inhibition ([2]; 2.5 uM): 31.5626% and 77.85% and 88.9906%
% Inhibition ([2]; 5 uM): 96.6907% and 99.2675%
% Inhibition ([2]; 10 uM): 99.9718% and 99.9679%
CC50 at 48 h [3]: > 50 µM
reduction of the risk of hospitalization or death (COVID-19): 87%
EC50 ([4]; Severe acute respiratory syndrome coronavirus 2, Vero C1008, 48 h, read-out: EC50 in Vero E6 cells, SARS-CoV-2 (Beta, B.1.351)): 1.78 µM
inhibition at 0.01 µM ([4]; Severe acute respiratory syndrome coronavirus 2, Vero C1008, beta, 0.01 uM, Vero E6, replicates): 0%
inhibition at 0.1 µM ([4]; Severe acute respiratory syndrome coronavirus 2, Vero C1008, beta, 0.1 uM, Vero E6, replicates): 0%
inhibition at 0.25 µM ([4]; Severe acute respiratory syndrome coronavirus 2, Vero C1008, beta, 0.25 uM, Vero E6, replicates): 0%
inhibition at 0.5 µM ([4]; Severe acute respiratory syndrome coronavirus 2, Vero C1008, beta, 0.5 uM, Vero E6, replicates): 0%
inhibition at 2 µM ([4]; Severe acute respiratory syndrome coronavirus 2, Vero C1008, beta, 2 uM, Vero E6, replicates): 65.2%
inhibition at 5 µM ([4]; Severe acute respiratory syndrome coronavirus 2, Vero C1008, beta, 5 uM, Vero E6, replicates): 86.2%
inhibition at 10 µM ([4]; Severe acute respiratory syndrome coronavirus 2, Vero C1008, beta, 10 uM, Vero E6, replicates): 99.9%
inhibition at 50 µM ([4]; Severe acute respiratory syndrome coronavirus 2, Vero C1008, beta, 50 uM, Vero E6, replicates): 99.9%
EC90 ([4]; Severe acute respiratory syndrome coronavirus 2, Vero C1008, read-out: EC90 (Confidence 95%), Vero-E6, Beta B.1.351): 5.02 µM
% Inhibition ([4]; 1 uM, Vero E6, replicates): 35.9868% and 14.2725%
% Inhibition ([4]; 2 uM, Vero E6, replicates): 49.345%
% Inhibition ([4]; 5 uM, Vero E6, replicates): 85.4168%
% Inhibition ([4]; 10 uM, Vero E6, replicates): 99.9589%
% Inhibition ([4]; 50 uM, Vero E6, replicates): 99.9256%
% Inhibition (SARS-CoV-2 (B.1); B.1, 2 uM, Vero E6, replicates, 2 µM): 36.1424%
% Inhibition (SARS-CoV-2 (B.1); B.1, 5 uM, Vero E6, replicates, 5 µM): 93.823%
% Inhibition (SARS-CoV-2 (B.1); B.1, 10 uM, Vero E6, replicates, 10 µM): 98.7241%
% Inhibition (SARS-CoV-2 (B.1); B.1, 50 uM, Vero E6, replicates, 50 µM): 99.0519%
inhibition at 0.01 µM (SARS-CoV-2 (B.1); Severe acute respiratory syndrome coronavirus 2, Vero C1008, B.1, 0.01 uM, Vero E6, replicates): 0%
inhibition at 0.1 µM (SARS-CoV-2 (B.1); Severe acute respiratory syndrome coronavirus 2, Vero C1008, B.1, 0.1 uM, Vero E6, replicates): 0%
inhibition at 0.25 µM (SARS-CoV-2 (B.1); Severe acute respiratory syndrome coronavirus 2, Vero C1008, B.1, 0.25 uM, Vero E6, replicates): 0%
inhibition at 0.5 µM (SARS-CoV-2 (B.1); Severe acute respiratory syndrome coronavirus 2, Vero C1008, B.1, 0.5 uM, Vero E6, replicates): 0%
inhibition at 1 µM (SARS-CoV-2 (B.1); Severe acute respiratory syndrome coronavirus 2, Vero C1008, B.1, 1 uM, Vero E6, replicates): 0%
inhibition at 2 µM (SARS-CoV-2 (B.1); Severe acute respiratory syndrome coronavirus 2, Vero C1008, B.1, 2 uM, Vero E6, replicates): 39.1%
inhibition at 5 µM (SARS-CoV-2 (B.1); Severe acute respiratory syndrome coronavirus 2, Vero C1008, B.1, 5 uM, Vero E6, replicates): 94.6%
inhibition at 10 µM (SARS-CoV-2 (B.1); Severe acute respiratory syndrome coronavirus 2, Vero C1008, B.1, 10 uM, Vero E6, replicates): 98.6%
inhibition at 50 µM (SARS-CoV-2 (B.1); Severe acute respiratory syndrome coronavirus 2, Vero C1008, B.1, 50 uM, Vero E6, replicates): 99.2%
EC90 (SARS-CoV-2 (B.1); [6]): 4.25 µM
EC50 (SARS-CoV-2 (B.1); Severe acute respiratory syndrome coronavirus 2, Vero C1008, MOI 0.05, 48 h): 2.28 µM
EC50 ([5]; Severe acute respiratory syndrome coronavirus 2, Vero C1008, 48 h, read-out: EC50 in Vero E6 cells, SARS-CoV-2 (Omicron, B.1.1.529)): 1.24 µM
inhibition at 0.069 µM ([5]; Severe acute respiratory syndrome coronavirus 2, Vero C1008, Omicon, 0.069 uM, Vero E6, replicates): 0%
inhibition at 5 µM ([5]; Severe acute respiratory syndrome coronavirus 2, Vero C1008, Omicon, 5 uM, Vero E6, replicates): 96.9%
inhibition at 10 µM ([5]; Severe acute respiratory syndrome coronavirus 2, Vero C1008, Omicon, 10 uM, Vero E6, replicates): 100%
EC90 [5, 6]: 5.69 µM
